Data on 28 compounds can be found in patent publication US10098878B2, “HIF-2α inhibitors for treating iron overload disorders” (The Board of Regents of the University of Texas System, priority 2014, dated 2018).

One test relates to 786-O-Hif-Luc cells. Description: Luciferase Assay. The conditions noted are these: read-out: Luciferase EC50. The format is cell-based. As to the method:
A pool of infected cells were then selected against 2 μg/mL of puromycin (P8833, Sigma) for 10 days followed by limited dilution to select single clones.
Each concentration was tested in triplicate. After about 24 hours, luciferase activity was determined using ONE-Glo Luciferase Assay Reagent (E6110, Promega) following the manufacturer's recommended procedure. EC50 were calculated by using Dotmatics software.

Test [1] deals with T1, HIF-2α HIS TAG-PASB Domain (Homo sapiens, UniProt Q99814).
T1 construct: 100 nM HIF-2α HIS TAG-PASB Domain
Briefly: HIF-2α Scintillation Proximity Assay (SPA). Type of test: binding. The following applies: 100 nM HIF-2α HIS TAG-PASB Domain. A digest of the protocol: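 IC50 values rest on percent inhibition, where the sample signal is scaled between high and low controls. Wells contain about 100 μL: compound dispensed as 2 μL of DMSO solution, 88 μL protein-probe mix and 10 μL of beads.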
For orientation: Scintillation proximity formats need no separation of bound from free tracer.

[2] abbreviates: 24 h, 786-O-Hif-Luc cells, about 24 hours.
Where [3] appears, read: 150 nM Compound 211 probe, read-out: SPA IC50.
Setting [4] is: SPA IC50, 150 nM Compound 211 probe.
Where [5] appears, read: 786-O-Hif-Luc cells, about 24 hours.

Where two headings read alike, the source gives them in different places.

T1 sequence (Q99814 240-350 limits assumed): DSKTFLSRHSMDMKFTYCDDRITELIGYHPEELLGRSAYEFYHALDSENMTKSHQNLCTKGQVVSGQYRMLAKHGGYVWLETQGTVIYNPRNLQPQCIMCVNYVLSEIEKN

Take `O=S1(=O)CC(O)c2c1ccc(Oc1cc(F)cc(F)c1)c2C(F)F` (centres unmarked) [Compound 134, 4-(Difluoromethyl)-5-(3,5-difluorophenoxy)-3-hydroxy-2,3-dihydrobenzo[b]thiophene 1,1-dioxide]: the concentration giving a half-maximal response (EC50) with 786-O-Hif-Luc cells (setting [2]) was found to be 718 nM. The IC50 in test [1] (setting [3]) is 77 nM.
For `N=S1(=O)c2ccc(Oc3cc(F)cc(F)c3)c(Br)c2C(O)C1(F)F` (single isomer, unassigned) [Compound 141, 4-Bromo-5-(3,5-difluorophenoxy)-2,2-difluoro-3-hydroxy-1-imino-2,3-dihydro-1H-1λ^4-benzo[b]thiophene 1-oxide], in that order: 544 nM and 4100 nM.
Regarding `O=S1(=O)c2ccc(Oc3cccc4cn[nH]c34)c(C(F)F)c2C(O)C1(F)F` (centres unmarked) [Compound 205, 5-((1H-Indazol-7-yl)oxy)-4-(difluoromethyl)-2,2-difluoro-3-hydroxy-2,3-dihydrobenzo[b]thiophene 1,1-dioxide], in the test on 786-O-Hif-Luc cells (setting [2]), the concentration for a half-maximal effect (EC50) is 6900 nM. Moreover, in test [1] (setting [3]), the IC50 amounted to 1760 nM.
For `C[C@@H]1Cc2c(Oc3cc(F)cc(C#N)c3)ccc(S(C)(=O)=O)c2[C@@H]1O` [Compound 65, 3-fluoro-5-(((1R,2R)-1-hydroxy-2-methyl-7-(methylsulfonyl)-2,3-dihydro-1H-inden-4-yl)oxy)benzonitrile], in that order: 2100 nM and 1850 nM.
Taken in the same sequence, the figures for `N#Cc1c(Oc2cccc(F)c2)ccc2c1[C@@H](O)CS2(=O)=O` [Compound 186, (R)-5-(3-fluorophenoxy)-3-hydroxy-2,3-dihydrobenzo[b]thiophene-4-carbonitrile 1,1-dioxide] were 492 nM and 746 nM.
With `NC1c2cc(Oc3cc(F)cc(Cl)c3)ccc2S(=O)(=O)C1(F)F` (centres unmarked) [Compound 122, 3-Amino-5-(3-chloro-5-fluorophenoxy)-2,2-difluoro-2,3-dihydrobenzo[b]thiophene 1,1-dioxide], in the test with 786-O-Hif-Luc cells (setting [2]), the EC50 is 3720 nM. Besides, the IC50 in test [1] (setting [3]) was found to be 200 nM.
For `N#Cc1cc(F)cc(Oc2ccc(S(=O)(=O)C(F)(F)F)c3c2CC(F)C3N)c1` (single isomer, unassigned) [Compound 29, 3-((1-amino-2-fluoro-7-((trifluoromethyl)sulfonyl)-2,3-dihydro-1H-inden-4-yl)oxy)-5-fluorobenzonitrile], in that order: 897 nM and 90 nM.
As to `N#Cc1cc(F)cc(Oc2ccc3c(c2C#N)[C@@H](O)CS3(=O)=O)c1` [Compound 180, (R)-5-(3-Cyano-5-fluorophenoxy)-3-hydroxy-2,3-dihydrobenzo[b]thiophene-4-carbonitrile 1,1-dioxide], in the test with 786-O-Hif-Luc cells (setting [2]), the EC50 came to 400 nM. In test [1] (setting [3]), the IC50 was found to be 12900 nM.
Consider `NC1CS(=O)(=O)c2ccc(Oc3cc(F)cc(Cl)c3)c(C(F)F)c21` (centres unmarked) [Compound 127, 3-Amino-5-(3-chloro-5-fluorophenoxy)-4-(difluoromethyl)-2,3-dihydrobenzo[b]thiophene 1,1-dioxide], for which the 50% effective concentration (EC50) in the test on 786-O-Hif-Luc cells (setting [2]) stood at 6890 nM. In test [1] (setting [3]), the half-inhibitory concentration (IC50) is 7880 nM.
Taken in the same sequence, the figures for `COc1cc(F)cc(Oc2ccc3c(c2C#N)[C@@H](O)C(F)(F)S3(=O)=O)c1` [Compound 191, (R)-2,2-difluoro-5-(3-fluoro-5-methoxyphenoxy)-3-hydroxy-2,3-dihydrobenzo[b]thiophene-4-carbonitrile 1,1-dioxide] were 15000 nM and 66 nM.
For `Cc1cncc(Oc2ccc(S(C)(=O)=O)c3c2CC(F)(F)[C@H]3O)n1` [Compound 11, (S)-2,2-Difluoro-4-((6-methylpyrazin-2-yl)oxy)-7-(methylsulfonyl)-2,3-dihydro-1H-inden-1-ol], in that order: 13500 nM and < 5 nM.
For `C[S+]([O-])c1ccc(Oc2cc(F)cc(C#N)c2)c2c1[C@H](O)C(F)(F)C2` (stereo partly drawn) [Compound 36, 3-[(1S)-2,2-Difluoro-1-hydroxy-7-methylsulfinyl-indan-4-yl]oxy-5-fluoro-benzonitrile], in that order: 2280 nM and 2000 nM.
Turning to `CC1(O)c2c(ccc(Oc3cc(F)cc(C#N)c3)c2C(F)F)S(=O)(=O)C1(F)F` (centres unmarked) [Compound 206, 3-((4-(Difluoromethyl)-2,2-difluoro-3-hydroxy-3-methyl-1,1-dioxido-2,3-dihydrobenzo[b]thiophen-5-yl)oxy)-5-fluorobenzonitrile], the EC50 in the test on 786-O-Hif-Luc cells (setting [2]) came to 771 nM. Also, the concentration for half-maximal inhibition (IC50) in test [1] (setting [3]) is 200 nM.
With `C#Cc1c(Oc2cc(F)cc(C#N)c2)ccc2c1C(O)C(F)(F)S2(=O)=O` (centres unmarked) [Compound 173, 3-((4-Ethynyl-2,2-difluoro-3-hydroxy-1,1-dioxido-2,3-dihydrobenzo[b]thiophen-5-yl)oxy)-5-fluorobenzonitrile], in the test on 786-O-Hif-Luc cells (setting [2]), the EC50 is 190 nM. In test [1] (setting [3]), the 50% inhibitory concentration (IC50) is 59 nM.
Taken in the same sequence, the figures for `CS(=O)(=O)c1ccc(Oc2cc(F)cc(C#N)c2)c2c1[C@H](O)C(F)(Cl)C2` (stereo partly drawn) [Compound 34, 3-(((1S)-2-chloro-2-fluoro-1-hydroxy-7-(methylsulfonyl)-2,3-dihydro-1H-inden-4-yl)oxy)-5-fluorobenzonitrile] were 100 nM and 97 nM.
For `O=S(=O)(c1ccc(Oc2cc(Cl)c[n+]([O-])c2)c2c1[C@H](O)C(F)(F)C2)C(F)(F)F` [Compound 28, (S)-3-Chloro-5-((2,2-difluoro-1-hydroxy-7-((trifluoromethyl)sulfonyl)-2,3-dihydro-1H-inden-4-yl)oxy)pyridine 1-oxide], in that order: 173 nM and 66 nM.
Take `N#Cc1c(Oc2cc(F)cc(F)c2)ccc2c1C(O)C(F)(F)S2(=O)=O` (centres unmarked) [Compound 207, 5-(3,5-Difluorophenoxy)-2,2-difluoro-3-hydroxy-2,3-dihydrobenzo[b]thiophene-4-carbonitrile 1,1-dioxide]: the EC50 with 786-O-Hif-Luc cells (setting [2]) came out at 427 nM. Further, the concentration for half-maximal inhibition (IC50) in test [1] (setting [3]) is 46 nM.
Taken in the same sequence, the figures for `N#Cc1cc(F)cc(Oc2ccc(S(N)(=O)=O)c3c2C[C@@H](F)[C@H]3O)c1` [Compound 98, (2R,3S)-7-(3-cyano-5-fluoro-phenoxy)-2-fluoro-3-hydroxy-indane-4-sulfonamide] were 224 nM and 73 nM.
Take `O=S1(=O)c2ccc(Oc3cncc(Cl)c3)c(C(F)F)c2C(O)C1(F)F` (centres unmarked) [Compound 145, 5-((5-Chloropyridin-3-yl)oxy)-4-(difluoromethyl)-2,2-difluoro-3-hydroxy-2,3-dihydrobenzo[b]thiophene 1,1-dioxide]: the EC50 in the test with 786-O-Hif-Luc cells came out at 149 nM. In test [1] (setting [4]), this compound displayed an IC50 of 229 nM.
Consider `N#CN=S1(=O)c2ccc(Oc3cc(F)cc(F)c3)c(Cl)c2[C@@H](O)C1(F)F` (stereo partly drawn) [Compound 176, N-((3R)-4-Chloro-5-(3,5-difluorophenoxy)-2,2-difluoro-3-hydroxy-1-oxido-2,3-dihydro-1λ^4-benzo[b]thiophen-1-ylidene)cyanamide], for which the concentration for a half-maximal effect (EC50) with 786-O-Hif-Luc cells (setting [2]) amounted to 2160 nM. Also, the IC50 in test [1] (setting [3]) worked out at 174 nM.
Take `Cc1c(Oc2cc(F)cc(Cl)c2)ccc2c1C(O)C(F)(F)S2(=O)=O` (centres unmarked) [Compound 123, 5-(3-Chloro-5-fluorophenoxy)-2,2-difluoro-3-hydroxy-4-methyl-2,3-dihydrobenzo[b]thiophene 1,1-dioxide]: the EC50 in the test on 786-O-Hif-Luc cells is 449 nM. The same compound showed a half-maximal inhibitory concentration (IC50) in test [1] (setting [4]) of 15 nM.
Consider `C[C@@]1(F)Cc2c(Oc3cc(F)cc(C#N)c3)ccc(S(C)(=O)=O)c2[C@@H]1O` [Compound 64, 3-fluoro-5-(((1S,2R)-2-fluoro-1-hydroxy-2-methyl-7-(methylsulfonyl)-2,3-dihydro-1H-inden-4-yl)oxy)benzonitrile], for which the EC50 with 786-O-Hif-Luc cells (setting [2]) was determined as 2830 nM. In test [1] (setting [3]), the IC50 was found to be 2030 nM.
Taken in the same sequence, the figures for `N#Cc1c(Oc2cc(F)cc(F)c2)ccc2c1C(O)C(F)S2(=O)=O` (centres unmarked) [Compound 154, 5-(3,5-Difluorophenoxy)-2-fluoro-3-hydroxy-2,3-dihydrobenzo[b]thiophene-4-carbonitrile 1,1-dioxide] were 793 nM and 1640 nM.
For `CS(=O)(=O)c1ccc(Oc2cc(F)cc(C#N)c2)c2c1[C@H](O)C(F)(F)[C@@H]2O` [Compound 76, 3-[(1S,3R)-2,2-difluoro-1,3-dihydroxy-7-methylsulfonyl-indan-4-yl]oxy-5-fluoro-benzonitrile], in that order: 631 nM and 150 nM.
Turning to `O=S1(=O)c2ccc(Oc3cc(F)cc(Cl)c3)c(Br)c2[C@H](O)C1(F)F` [Compound 169, (3S)-4-Bromo-5-(3-chloro-5-fluoro-phenoxy)-2,2-difluoro-1,1-dioxo-3H-benzothiophen-3-ol], the half-maximal effective concentration (EC50) in the test with 786-O-Hif-Luc cells (setting [5]) was found to be 172 nM. For the same compound, the half-maximal inhibitory concentration (IC50) in test [1] (setting [4]) worked out at 60 nM.
Regarding `CS(=O)(=O)c1ccc(Oc2cc(F)cc(C#N)c2)c2c1C(=O)C(F)(Cl)C2` (centres unmarked) [Compound 33, 3-((2-chloro-2-fluoro-7-(methylsulfonyl)-1-oxo-2,3-dihydro-1H-inden-4-yl)oxy)-5-fluorobenzonitrile], the half-maximal effective concentration (EC50) in the test on 786-O-Hif-Luc cells (setting [2]) worked out at 19400 nM. The IC50 in test [1] (setting [3]) stood at 310 nM.
Taken in the same sequence, the figures for `Cc1cc(Oc2cc(F)cc(C#N)c2)c2c(c1S(C)(=O)=O)C(O)C(F)(F)C2` (centres unmarked) [Compound 12, 3-((2,2-Difluoro-1-hydroxy-6-methyl-7-(methylsulfonyl)-2,3-dihydro-1H-inden-4-yl)oxy)-5-fluorobenzonitrile] were 775 nM and 800 nM.
Take `[2H]C1(O)c2c(ccc(Oc3cc(F)cc(Cl)c3)c2C(F)F)S(=O)(=O)C1(F)F` (centres unmarked) [Compound 135, 5-(3-Chloro-5-fluorophenoxy)-4-(difluoromethyl)-2,2-difluoro-3-hydroxy-2,3-dihydrobenzo[b]thiophene 1,1-dioxide-3-d]: the half-maximal effective concentration (EC50) in the test on 786-O-Hif-Luc cells (setting [5]) was 10 nM. The IC50 in test [1] (setting [4]) is < 5 nM.

As a reminder, the EC50 is the concentration needed to bring the measured effect to its halfway point. A word on the IC50: it is the midpoint of a concentration-inhibition curve.
